Source: patent US12485123B2, “1H-pyrazolo[4,3-d]pyrimidine compounds as toll-like receptor 7 (TLR7) agonists” (BRISTOL-MYERS SQUIBB COMPANY, priority 2020, dated 2025)
pEC50: −log10 of the molar value.

Assays:
human TLR7 = target: T1, human TLR7 (Homo sapiens, UniProt Q9NYK1); experiment: Human TLR7 agonist activity reporter assay (HEK-Blue TLR7 cells, SEAP reporter); assay type: cell-based; settings: human TLR7 (hTLR7) reporter assay, SEAP readout after 18 h, average where assay repeated, read-out: TLR7 Agonism EC50
T1 construct: host or cells: HEK-Blue TLR7 cells (engineered human embryonic kidney cells)
T1 sequence (Q9NYK1 27-1049): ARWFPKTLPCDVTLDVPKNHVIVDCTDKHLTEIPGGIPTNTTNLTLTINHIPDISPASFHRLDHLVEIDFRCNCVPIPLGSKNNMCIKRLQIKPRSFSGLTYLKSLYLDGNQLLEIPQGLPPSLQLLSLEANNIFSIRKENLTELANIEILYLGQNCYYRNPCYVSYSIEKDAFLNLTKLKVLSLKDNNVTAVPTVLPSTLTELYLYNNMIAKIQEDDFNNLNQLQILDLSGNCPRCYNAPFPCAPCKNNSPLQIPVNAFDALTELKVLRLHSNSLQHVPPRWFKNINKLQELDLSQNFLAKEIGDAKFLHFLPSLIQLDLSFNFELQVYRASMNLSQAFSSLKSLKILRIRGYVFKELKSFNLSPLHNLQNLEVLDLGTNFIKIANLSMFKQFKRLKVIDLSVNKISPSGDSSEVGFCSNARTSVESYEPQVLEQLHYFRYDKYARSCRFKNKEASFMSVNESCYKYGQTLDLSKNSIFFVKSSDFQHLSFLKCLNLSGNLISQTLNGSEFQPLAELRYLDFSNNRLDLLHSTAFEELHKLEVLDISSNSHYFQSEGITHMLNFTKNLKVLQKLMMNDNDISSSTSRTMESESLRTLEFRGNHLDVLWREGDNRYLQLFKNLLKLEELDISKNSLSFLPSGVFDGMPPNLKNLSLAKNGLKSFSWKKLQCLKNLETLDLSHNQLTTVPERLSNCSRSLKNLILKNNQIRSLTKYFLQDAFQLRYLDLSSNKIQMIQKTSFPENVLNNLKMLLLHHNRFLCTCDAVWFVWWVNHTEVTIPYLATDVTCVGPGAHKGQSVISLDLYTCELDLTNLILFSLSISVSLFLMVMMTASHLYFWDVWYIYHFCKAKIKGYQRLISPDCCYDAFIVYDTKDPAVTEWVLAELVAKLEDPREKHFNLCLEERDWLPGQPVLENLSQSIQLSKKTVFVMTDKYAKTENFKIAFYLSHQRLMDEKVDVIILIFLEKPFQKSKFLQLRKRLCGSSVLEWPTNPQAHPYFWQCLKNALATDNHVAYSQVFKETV
Protocol: Human TLR7 Agonist Activity Assay
This procedure describes a method for assaying human TLR7 (hTLR7) agonist activity of the compounds disclosed in this specification.
HEK-Blue™ TLR7 cells were added to each well of a 384-well tissue-culture plate (15,000 cells per well) and incubated 16-18 h at 37° C., 5% CO2. Compounds (100 nl) were dispensed into wells containing the HEK-Blue™ TLR cells and the treated cells were incubated at 37° C., 5% CO2. After 18 h treatment ten microliters of freshly-prepared Quanti-Blue™ reagent (Invivogen) was added to each well, incubated for 30 min (37° C., 5% CO2) and SEAP levels measured using an Envision plate reader (OD=620 nm).

CD69 = experiment: Induction of CD69 in human whole blood; assay type: cell-based; settings: 17 hrs incubation, CD69 surface staining, 100% set to 1 uM of resiquimod, average where assay repeated, read-out: hWB CD69 EC50
Protocol: Induction of Type I Interferon Genes (MX-1) and CD69 in Human Blood
The induction of Type I interferon (IFN) MX-1 genes and the B-cell activation marker CD69 are downstream events that occur upon activation of the TLR7 pathway. The following is a human whole blood assay that measures their induction in response to a TLR7 agonist.
Heparinized human whole blood was harvested from human subjects and treated with test TLR7 agonist compounds at 1 mM. The blood was diluted with RPMI 1640 media and Echo was used to predot 10 nL per well giving a final concentration of 1 uM (10 nL in 10 uL of blood). After mixing on a shaker for 30 sec, the plates were covered and placed in a 37° C. chamber for o/n=17 hrs. Fixing/lysis buffer was prepared (5×→1× in H2O, warm at 37° C.; Cat #BD 558049) and kept the perm buffer (on ice) for later use.
For surface markers staining (CD69): prepared surface Abs: 0.045 ul hCD14-FITC (ThermoFisher Cat #MHCD1401)+0.6 ul hCD19-ef450 (ThermoFisher Cat #48-0198-42)+1.5 ul hCD69-PE (cat #BD555531)+0.855 ul FACS buffer. Added 3 ul/well, spin 1000 rpm for 1 min and mixed on shaker for 30 sec, put on ice for 30 min. Stop stimulation after 30 minutes with 70 uL of prewarmed 1× fix/lysis buffer and use Feliex mate to resuspend (15 times, change tips for each plate) and incubate at 37 C for 10 minutes.
Centrifuge at 2000 rpm for 5 minutes aspirate with HCS plate washer, mix on shaker for 30 sec and then wash with 70 uL in dPBS and pelleted 2×s (2000 rpm for 5 min) and 50 ul wash in FACS buffer pelleted 1×s (2000 rpm for 5 min). Mix on shaker for 30 sec. For Intracellular markers staining (MX-1): Add 50 ul of BD Perm buffer III and mix on shaker for 30 sec. Incubate on ice for 30 minutes (in the dark). Wash with 50 uL of FACS buffer 2× (spin @2300 rpm×5 min after perm) followed by mixing on shaker for 30 sec. Resuspended in 20 ul of FACS buffer containing MX1 antibody ( )(4812)-Alexa 647: Novus Biologicals #NBP2-43704AF647) 20 ul FACS bf+0.8 ul hIgG+0.04 ul MX-1. Spin 1000 rpm for 1 min, mix on shaker for 30 se and the samples were incubated at RT in the dark for 45 minutes followed by washing 2×FACS buffer (spin @2300 rpm×5 min after perm). Resuspend 20 ul (35 uL total per well) of FACS buffer and cover with foil and place in 4° C. to read the following day. Plates were read on iQuePlus. The results were loaded into toolset and […] curves are generated in curve master. The y-axis 100% is set to 1 uM of resiquimod.

Compound	pEC50 (human TLR7)	pEC50 (CD69)
CCC[C@@H](CCO)Nc1nc(N)nc2cnn(Cc3ccc(C(=O)N4CC(OC)C4)c4cccnc34)c12 [Compound 108, (3S)-3-[(5-amino-1-{[5-(3-methoxyazetidine-1-carbonyl)quinolin-8-yl]methyl}-1H-pyrazolo[4,3-d]pyrimidin-7-yl)amino]hexan-1-ol]	7.17	6.96
CCC[C@@H](CCO)Nc1nc(N)nc2c(C)nn(Cc3ccc(C(=O)NC4CCOCC4)c4cccnc34)c12 [Compound 119, 8-[(5-amino-7-{[(3S)-1-hydroxyhexan-3-yl]amino}-3-methyl-1H-pyrazolo[4,3-d]pyrimidin-1-yl)methyl]-N-(oxan-4-yl)quinoline-5-carboxamide]	6.22	6.00
CCC[C@@H](CCO)Nc1nc(N)nc2cnn(Cc3ccc(C(=O)N4CCC(CCO)CC4)c4cccnc34)c12 [Compound 134, (3S)-3-{[5-amino-1-({5-[4-(2-hydroxyethyl)piperidine-1-carbonyl]quinolin-8-yl}methyl)-1H-pyrazolo[4,3-d]pyrimidin-7-yl]amino}hexan-1-ol]	7.45	6.71
CCC[C@@H](CCO)Nc1nc(N)nc2cnn(Cc3ccc(C4CCN(C(C)C)CC4)c4cccnc34)c12 [Compound 143, (3S)-3-{[5-amino-1-({5-[1-(propan-2-yl)piperidin-4-yl]quinolin-8-yl}methyl)-1H-pyrazolo[4,3-d]pyrimidin-7-yl]amino}hexan-1-ol]	8.21	–
CCC[C@@H](CCO)Nc1nc(N)nc2cnn(Cc3ccc(C(=O)NCCCCO)c4cccnc34)c12 [Compound 136, 8-[(5-amino-7-{[(3S)-1-hydroxyhexan-3-yl]amino}-1H-pyrazolo[4,3-d]pyrimidin-1-yl)methyl]-N-(4-hydroxybutyl)quinoline-5-carboxamide]	6.64	6.38
CCC[C@@H](CCO)Nc1nc(N)nc2cnn(Cc3ccc(C(=O)NCCN)c4cccnc34)c12 [Compound 133, 8-[(5-amino-7-{[(3S)-1-hydroxyhexan-3-yl]amino}-1H-pyrazolo[4,3-d]pyrimidin-1-yl)methyl]-N-(2-aminoethyl)quinoline-5-carboxamide]	6.39	6.23
CCC[C@@H](CCO)Nc1nc(N)nc2c(C)nn(Cc3ccc(C(=O)NC4CCN(C)CC4)c4cccnc34)c12 [Compound 123, 8-[(5-amino-7-{[(3S)-1-hydroxyhexan-3-yl]amino}-3-methyl-1H-pyrazolo[4,3-d]pyrimidin-1-yl)methyl]-N-(1-methylpiperidin-4-yl)quinoline-5-carboxamide]	6.14	6.18
CCC[C@@H](CCO)Nc1nc(N)nc2cnn(Cc3ccc(C4CCN(C5CCOCC5)CC4)c4cccnc34)c12 [Compound 142, (3S)-3-{[5-amino-1-({5-[1-(oxan-4-yl)piperidin-4-yl]quinolin-8-yl}methyl)-1H-pyrazolo[4,3-d]pyrimidin-7-yl]amino}hexan-1-ol]	8.07	–
CCC[C@@H](CCO)Nc1nc(N)nc2cnn(Cc3ccc(C(=O)N4CCN(CCOC)CC4)c4cccnc34)c12 [Compound 131, (3S)-3-{[5-amino-1-({5-[4-(2-methoxyethyl)piperazine-1-carbonyl]quinolin-8-yl}methyl)-1H-pyrazolo[4,3-d]pyrimidin-7-yl]amino}hexan-1-ol]	–	7.04
CCC[C@@H](CCO)Nc1nc(N)nc2cnn(Cc3ccc(C(=O)N4CC(CCO)C4)c4cccnc34)c12 [Compound 132, (3S)-3-{[5-amino-1-({5-[3-(2-hydroxyethyl)azetidine-1-carbonyl]quinolin-8-yl}methyl)-1H-pyrazolo[4,3-d]pyrimidin-7-yl]amino}hexan-1-ol]	–	6.99

Other lines, results leading:

pEC50 (human TLR7)	pEC50 (CD69)	Compound
7.71	7.32	CCC[C@@H](CCO)Nc1nc(N)nc2cnn(Cc3ccc(CN4CC5(CCOCC5)C4)c4cccnc34)c12 [Compound 106, (3S)-3-[(5-amino-1-{[5-({7-oxa-2-azaspiro[3.5]nonan-2-yl}methyl)quinolin-8-yl]methyl}-1H-pyrazolo[4,3-d]pyrimidin-7-yl)amino]hexan-1-ol]
–	7.30	CCC[C@@H](CCO)Nc1nc(N)nc2cnn(Cc3ccc(C(=O)N4CC5(CN(C)C5)C4)c4cccnc34)c12 [Compound 130, (3S)-3-({5-amino-1-[(5-{6-methyl-2,6-diazaspiro[3.3]heptane-2-carbonyl}quinolin-8-yl)methyl]-1H-pyrazolo[4,3-d]pyrimidin-7-yl}amino)hexan-1-ol]
–	7.08	CCC[C@@H](CCO)Nc1nc(N)nc2cnn(Cc3ccc(C(=O)N(C)C4CCOCC4)c4cccnc34)c12 [Compound 129, 8-[(5-amino-7-{[(3S)-1-hydroxyhexan-3-yl]amino}-1H-pyrazolo[4,3-d]pyrimidin-1-yl)methyl]-N-methyl-N-(oxan-4-yl)quinoline-5-carboxamide]
7.22	7.69	CCC[C@@H](CCO)Nc1nc(N)nc2cnn(Cc3ccc(C(=O)N4CCNCC4)c4cccnc34)c12 [Compound 137, (3S)-3-[(5-amino-1-{[5-(piperazine-1-carbonyl)quinolin-8-yl]methyl}-1H-pyrazolo[4,3-d]pyrimidin-7-yl)amino]hexan-1-ol]
6.72	7.30	CCC[C@@H](CCO)Nc1nc(N)nc2cnn(Cc3ccc(C(=O)N4C[C@H]5C[C@@H]4CN5C)c4cccnc34)c12 [Compound 126, (3S)-3-{[5-amino-1-({5-[(1R,4R)-5-methyl-2,5-diazabicyclo[2.2.1]heptane-2-carbonyl]quinolin-8-yl}methyl)-1H-pyrazolo[4,3-d]pyrimidin-7-yl]amino}hexan-1-ol]
–	7.87	CCC[C@@H](CCO)Nc1nc(N)nc2cnn(Cc3ccc(CNC4CCOCC4)c4cccnc34)c12 [Compound 104, (3S)-3-({5-amino-1-[(5-{[(oxan-4-yl)amino]methyl}quinolin-8-yl)methyl]-1H-pyrazolo[4,3-d]pyrimidin-7-yl}amino)hexan-1-ol]
